# Test results: ChEMBL document CHEMBL4665885, “Structural Basis of Nanomolar Inhibition of Tumor-Associated Carbonic Anhydrase IX: X-Ray Crystallographic and Inhibition Study of Lipophilic Inhibitors with Acetazolamide Backbone” (J Med Chem, 2020)
# Key:
# Carbonic anhydrase 1 = Carbonic anhydrase 1 (Homo sapiens, UniProt P00915); assay: Inhibition of recombinant human CA1 expressed in Escherichia coli BL21 preincubated for 15 mins by phenol red dye-based stopped-flow CO2 hydration assay
# Carbonic anhydrase 9 = Carbonic anhydrase 9 (Homo sapiens, UniProt Q16790); assay: Inhibition of recombinant human CA9 expressed in Escherichia coli BL21 preincubated for 15 mins by phenol red dye-based stopped-flow CO2 hydration assay
# Carbonic anhydrase 1, sequence (P00915 whole entry): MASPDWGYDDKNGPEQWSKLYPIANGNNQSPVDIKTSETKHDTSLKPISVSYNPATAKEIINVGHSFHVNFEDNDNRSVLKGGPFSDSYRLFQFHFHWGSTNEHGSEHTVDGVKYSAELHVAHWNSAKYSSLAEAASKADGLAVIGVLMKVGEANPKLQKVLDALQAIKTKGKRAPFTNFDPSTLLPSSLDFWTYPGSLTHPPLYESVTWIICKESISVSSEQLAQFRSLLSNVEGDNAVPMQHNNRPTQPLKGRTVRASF
Ki (Carbonic anhydrase 1),Ki (Carbonic anhydrase 9),Compound
62.8 nM,15.7 nM,NS(=O)(=O)c1nnc(NC(=O)C2CCCCC2)s1
–,12.8 nM,CCC(=O)Nc1nnc(S(N)(=O)=O)s1 [PROPAZOLAMIDE]
63.4 nM,8.2 nM,CC(C)(C)C(=O)Nc1nnc(S(N)(=O)=O)s1
75.1 nM,2.4 nM,CC(C)C(=O)Nc1nnc(S(N)(=O)=O)s1
53.8 nM,2.1 nM,CCCC(=O)Nc1nnc(S(N)(=O)=O)s1
